Assay results taken from US4317914A, “Oxazolines” (Hoffmann-La Roche Inc., priority 1979, dated 1982).

What was measured:
plasma glucose [1] = assay: Activity on plasma glucose after repeated oral administration, fasted rat (1); format: in vivo; details: for Plasma glucose 3 hours after the last of 5 oral medications: 5 × p.o., *p < 0.05, ***p < 0.001; for Plasma glucose 3 hours after the last medication: ***p < 0.001
Description: (§1) The preparations containing the test compound were administered to rats and mice as a suspension in 5% gun arabic (10 ml/kg) through a stomach probe. Dogs received the preparations orally in gelatin capsules. The blank values were ascertained from animals which received only the vehicle or a blank capsule. The medication was administered daily at 9:00 a.m. and 3:00 p.m.
(§2) The plasma glucose (Tables 1 and 3) was determined according to the hexokinase method. The plasma was obtained from heparinized blood after decapitating the rats (1) or by puncturing the vena saphena (2), or there was used a filtrate, made protein-free with perchloric acid, of blood removed from the tip of the tail (3), (4), (5). The glucose in the urine was determined directly. In the case of (1), (2) and (4), the feed was withdrawn with the first of five medications.

blood glucose [2] = assay: Activity on blood glucose after repeated oral administration, obese-hyperglycemic mouse (5), quantitatively controlled feed supply; format: in vivo; details: 11 administrations
Description: as §1, §2
(§3) In the case of (3), female rats received 70 mg/kg of streptozotocin subcutaneously 2 weeks before the test. In the case of (3) and (5), quantitatively controlled feed supply existed.

[3] = Toxicity, 10 day test in rats; details: rat, in vivo
blood glucose [4] = assay: Activity on blood glucose after repeated oral administration, obese-hyperglycemic mouse (4), feed withdrawn; format: in vivo; details: 294 mg/kg p.o., 5 administrations
Description: as §1, §2

[5] = Toxicity, 10 day test in mice; details: mouse, in vivo
blood glucose [6] = assay: Activity on blood glucose after repeated oral administration, diabetic rat (3), streptozotocin; format: in vivo; details: 132 mg/kg p.o., 7 administrations
Description: as §1, §2, §3

plasma glucose [7] = assay: Activity on plasma glucose after repeated oral administration, fasted dog (2); format: in vivo; details: 5 administrations
Description: as §1, §2

[8] = 88 mg/kg p.o., 5 administrations

Which “Plasma glucose 3 hours after the last of 5 oral medications” value (plasma glucose [1]; 300 μmol/kg) does the source give for `CNc1ccc(C2OC(C)(C)N=C2c2ccccc2)cc1` (centres unmarked) [D, 5-[p-(methylamino)phenyl]-2,2-dimethyl-4-phenyl-3-oxazoline] here?
Its value is 86 % of the blank values.

And the “Plasma glucose 3 hours after the last of 5 oral medications” value (plasma glucose [1]; 1000 μmol/kg)?
The value was 81 % of the blank values.

With `CCN(CC)c1ccc(C2OC(C)(C)N=C2c2ccccc2)cc1` (centres unmarked) [B, 5-[p-(diethylamino)-phenyl]-2,2-dimethyl-4-phenyl-3-oxazoline] as the compound, how does the “Plasma glucose 3 hours after the last of 5 oral medications” value (plasma glucose [1]; 300 μmol/kg) read?
The value was 91 % of the blank values.

What about the “Plasma glucose 3 hours after the last of 5 oral medications” value (plasma glucose [1]; 1000 μmol/kg) of the same compound?
The value was 77 % of the blank values.

Which “Blood glucose 0 hours after the last medication” value (from here on “Blood glucose 0 hours”) (blood glucose [2]; 44 mg/kg p.o.) does the source give for `CN(C)c1ccc(C2OC(C)(C)N=C2c2ccccc2)cc1` (centres unmarked) [A, 5-[p-(dimethylamino)phenyl]-2,2-dimethyl-4-phenyl-3-oxazoline] here?
Its value is 83 % of blank values.

What about the “Blood glucose 1 hour after the last medication” value (shortened to “Blood glucose 1 hour”) (blood glucose [2]; 44 mg/kg p.o.) of the same compound?
The value was 77 % of blank values.

What about the “Blood glucose 3 hours after the last medication” value (shortened to “Blood glucose 3 hours”) (blood glucose [2]; 44 mg/kg p.o.) of the same compound?
Its value is 84 % of blank values.

And the “Blood glucose 0 hours” value (blood glucose [2]; 132 mg/kg p.o., **p < 0.01)?
The value was 66 % of blank values.

And the “Blood glucose 1 hour” value (blood glucose [2]; 132 mg/kg p.o., *p < 0.05)?
Its value is 61 % of blank values.

And the “Blood glucose 3 hours” value (blood glucose [2]; 132 mg/kg p.o., ***p < 0.001)?
Its value is 55 % of blank values.

What about the LD50 at 240 h [3] of the same compound?
The LD50 at 240 h was 970 mg/kg.

And the “Plasma glucose 3 hours after the last of 5 oral medications” value (plasma glucose [1]; 300 μmol/kg)?
The value was 78 % of the blank values.

What about the “Plasma glucose 3 hours after the last of 5 oral medications” value (plasma glucose [1]; 1000 μmol/kg) of the same compound?
The value was 58 % of the blank values.

What about the “Plasma glucose 0 hours after the last medication” value (“Plasma glucose 0 hours” below) (plasma glucose [1]; 88 mg/kg p.o., 5 administrations, 0 h) of the same compound?
The value was 76 % of blank values.

What about the “Plasma glucose 1 hour after the last medication” value (from here on “Plasma glucose 1 hour”) (plasma glucose [1]; [8]) of the same compound?
The value was 76 % of blank values.

And the “Plasma glucose 3 hours after the last medication” value (plasma glucose [1]; [8])?
The value was 78 % of blank values.

And the “Plasma glucose 1 hour” value (plasma glucose [1]; 294 mg/kg p.o., 5 administrations, **p < 0.01)?
Its value is 57 % of blank values.

What about the “Plasma glucose 3 hours after the last medication” value (plasma glucose [1]; 294 mg/kg p.o., 5 administrations) of the same compound?
Its value is 58 % of blank values.

What about the “Blood glucose 0 hours” value (blood glucose [4]; 0 h, *p < 0.05) of the same compound?
The value was 63 % of blank values.

What about the “Blood glucose 1 hour” value (blood glucose [4]; 1 h) of the same compound?
The value was 74 % of blank values.

And the “Blood glucose 3 hours” value (blood glucose [4]; 3 h)?
The value was 71 % of blank values.

What about the “Blood glucose 6 hours after the last medication” value (blood glucose [4]; 6 h, ***p < 0.001) of the same compound?
The value was 45 % of blank values.

What about the LD50 at 240 h [5] of the same compound?
Its LD50 at 240 h is 220 mg/kg.

And the “Blood glucose 0 hours” value (blood glucose [6]; 0 h)?
Its value is 101 % of blank values.

And the “Blood glucose 1 hour” value (blood glucose [6]; 1 h)?
Its value is 101 % of blank values.

What about the “Blood glucose 3 hours” value (blood glucose [6]; 3 h) of the same compound?
Its value is 90 % of blank values.

What about the “Blood glucose 6 hours after the last medication” value (blood glucose [6]; 6 h, *p < 0.05) of the same compound?
The value was 86 % of blank values.

And the “Plasma glucose 0 hours” value (plasma glucose [7]; 29 mg/kg p.o., **p < 0.01)?
Its value is 82 % of blank values.

What about the “Plasma glucose 1 hour” value (plasma glucose [7]; 29 mg/kg p.o., *p < 0.05) of the same compound?
Its value is 75 % of blank values.

And the “Plasma glucose 3 hours after the last medication” value (plasma glucose [7]; 29 mg/kg p.o., ***p < 0.001)?
Its value is 77 % of blank values.

What about the “Plasma glucose 6 hours after the last medication” value (plasma glucose [7]; 29 mg/kg p.o., **p < 0.01) of the same compound?
The value was 74 % of blank values.

And the “Plasma glucose 24 hours after the last medication” value (plasma glucose [7]; 29 mg/kg p.o.)?
The value was 84 % of blank values.

And the “Plasma glucose 0 hours” value (plasma glucose [7]; 88 mg/kg p.o., **p < 0.01)?
Its value is 77 % of blank values.

And the “Plasma glucose 1 hour” value (plasma glucose [7]; 88 mg/kg p.o.)?
The value was 75 % of blank values.

What about the “Plasma glucose 3 hours after the last medication” value (plasma glucose [7]; 88 mg/kg p.o., *p < 0.05) of the same compound?
The value was 78 % of blank values.

And the “Plasma glucose 6 hours after the last medication” value (plasma glucose [7]; 88 mg/kg p.o., *p < 0.05)?
The value was 76 % of blank values.

And the “Plasma glucose 24 hours after the last medication” value (plasma glucose [7]; 88 mg/kg p.o., *p < 0.05)?
The value was 74 % of blank values.

Which “Plasma glucose 3 hours after the last of 5 oral medications” value (plasma glucose [1]; 300 μmol/kg) does the source give for `CN(C=O)c1ccc(C2OC(C)(C)N=C2c2ccccc2)cc1` (centres unmarked) [C, 4'-(2,2-dimethyl-4-phenyl-3-oxazolin-5-yl)-N-methylformanilide] here?
Its value is 87 % of the blank values.
